In patent US11746100B2 (GLOBAL BLOOD THERAPEUTICS, INC., priority 2020, dated 2023) one finds pEC50 data, which are given here for 12 molecules.

In this assay the target is T1, human ferroportin (Homo sapiens, UniProt Q9NP59).
T1 construct: luciferase reporter (read with the Nano-Glo Luciferase Assay System); expressed in transfected cells; host or cells: CHO cells, stably transfected, expression induced with doxycycline
T1 sequence (Q9NP59 1-571): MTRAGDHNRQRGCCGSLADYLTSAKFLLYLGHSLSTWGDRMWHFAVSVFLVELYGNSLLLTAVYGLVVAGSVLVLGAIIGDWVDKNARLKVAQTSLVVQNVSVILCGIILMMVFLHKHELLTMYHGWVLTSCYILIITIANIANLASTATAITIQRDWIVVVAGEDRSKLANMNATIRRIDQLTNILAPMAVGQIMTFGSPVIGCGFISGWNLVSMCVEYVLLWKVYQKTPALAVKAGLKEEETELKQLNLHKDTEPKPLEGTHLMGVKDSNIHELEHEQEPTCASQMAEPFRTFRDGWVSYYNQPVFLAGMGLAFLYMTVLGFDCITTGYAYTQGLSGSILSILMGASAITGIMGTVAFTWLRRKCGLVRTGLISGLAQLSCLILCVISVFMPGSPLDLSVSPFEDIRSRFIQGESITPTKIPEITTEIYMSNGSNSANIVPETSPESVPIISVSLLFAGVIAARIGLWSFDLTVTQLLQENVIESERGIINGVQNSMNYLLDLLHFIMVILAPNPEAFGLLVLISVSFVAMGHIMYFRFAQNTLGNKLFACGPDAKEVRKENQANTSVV
Description: Biological in-vitro ferroportin internalization assay (luciferase reporter). It is filed as cell-based. Conditions: average pEC50; stably-transfected CHO cell line expressing human ferroportin tagged to a luciferase reporter; 6 h incubation with test compound. An outline of the steps:
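Stably transfected CHO cells expressing luciferase-tagged human ferroportin, plated 24 h with ferric ammonium citrate and induced with doxycycline for 24 h. Compounds incubated 6 h, then luciferase activity measured by Nano-Glo; average pEC50 reported.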
Take `Cc1ccc(NC(=O)CN(C)c2nc(-c3cc4cn[nH]c4cn3)nc3c2CCC3)cn1` [Compound 267, 2-[methyl(2-{1H-pyrazolo[3,4-c]pyridin-5-yl}-5H,6H,7H-cyclopenta[d]pyrimidin-4-yl)amino]-N-(6-methylpyridin-3-yl)acetamide]: the pEC50 (usually −log10 of the EC50, conventionally taken in molar units) stood at 7.1.

`COc1ccc(NC(=O)CN(C)c2nc(-c3cc4ccncc4cn3)nc3c2CCC3)cn1` [Compound 268, N-(6-methoxypyridin-3-yl)-2-{methyl[2-(2,7-naphthyridin-3-yl)-5H,6H,7H-cyclopenta[d]pyrimidin-4-yl]amino}acetamide] displayed a pEC50 of 6.

Consider `COc1ccc(NC(=O)CN(C)c2nc(-c3cc(OCCO)ccn3)nc3c2CCC3)cc1` [Compound 269, 2-({2-[4-(2-hydroxyethoxy)pyridin-2-yl]-5H,6H,7H-cyclopenta[d]pyrimidin-4-yl}(methyl)amino)-N-(4-methoxyphenyl)acetamide], for which the pEC50 was 8.4.

In turn, `Cc1ccc(NC(=O)CN(C)c2nc(-c3cc4c(CO)cccc4cn3)nc3c2CCC3)cn1` [Compound 270, 2-({2-[5-(hydroxymethyl)isoquinolin-3-yl]-5H,6H,7H-cyclopenta[d]pyrimidin-4-yl}(methyl)amino)-N-(6-methylpyridin-3-yl)acetamide] had a pEC50 of 7.5.

Consider `CN(CC(=O)Nc1cccc(F)c1)c1nc(-c2cn(C)cn2)nc2c1CCC2` [Compound 271, N-(3-fluorophenyl)-2-{methyl[2-(1-methyl-1H-imidazol-4-yl)-5H,6H,7H-cyclopenta[d]pyrimidin-4-yl]amino}acetamide], for which the pEC50 stood at 7.4.

In turn, `COc1cccc(NC(=O)CN(C)c2nc(-c3cn(C)cn3)nc3c2CCC3)c1` [Compound 272, N-(3-methoxyphenyl)-2-{methyl[2-(1-methyl-1H-imidazol-4-yl)-5H,6H,7H-cyclopenta[d]pyrimidin-4-yl]amino}acetamide] had a pEC50 of 7.8.

The molecule `C[C@H](C(=O)Nc1ccnnc1)N(C)c1nc(-c2cc3ccccc3cn2)nc2c1CCC2` [Compound 273, (2R)-2-{[2-(isoquinolin-3-yl)-5H,6H,7H-cyclopenta[d]pyrimidin-4-yl](methyl)amino}-N-(pyridazin-4-yl)propanamide] showed a pEC50 of 7.8.

The molecule `C[C@H](C(=O)Nc1ccc(C(F)(F)F)nc1)N(C)c1nc(-c2cc3ccccc3cn2)nc2c1CCC2` [Compound 274, (2R)-2-{[2-(isoquinolin-3-yl)-5H,6H,7H-cyclopenta[d]pyrimidin-4-yl](methyl)amino}-N-[6-(trifluoromethyl)pyridin-3-yl]propanamide] had a pEC50 of 6.8.

In the case of `CN(CC(=O)NC(C)(C)CO)c1nc(-c2cn(CCCO)cn2)nc2c1CCC2` [Compound 275, N-(1-hydroxy-2-methylpropan-2-yl)-2-({2-[1-(3-hydroxypropyl)-1H-imidazol-4-yl]-5H,6H,7H-cyclopenta[d]pyrimidin-4-yl}(methyl)amino)acetamide], the pEC50 is listed as 7.

Consider `COc1ncc(NC(=O)CN(C)c2nc(-c3cc(OC(C)(C)CO)ccn3)nc3c2CCC3)cn1` [Compound 276, 2-[(2-{4-[(1-hydroxy-2-methylpropan-2-yl)oxy]pyridin-2-yl}-5H,6H,7H-cyclopenta[d]pyrimidin-4-yl)(methyl)amino]-N-(2-methoxypyrimidin-5-yl)acetamide], for which the pEC50 is listed as 7.7.

As for `C[C@H](C(=O)Nc1cccc(F)c1)N(C)c1nc(-c2cn(C)cn2)nc2c1CCC2` [Compound 277, (2R)—N-(3-fluorophenyl)-2-{methyl[2-(1-methyl-1H-imidazol-4-yl)-5H,6H,7H-cyclopenta[d]pyrimidin-4-yl]amino}propanamide], the pEC50 is on record as 8.2.

In the case of `COc1cccc(NC(=O)[C@@H](C)N(C)c2nc(-c3cn(C)cn3)nc3c2CCC3)c1` [Compound 278, (2R)—N-(3-methoxyphenyl)-2-{methyl[2-(1-methyl-1H-imidazol-4-yl)-5H,6H,7H-cyclopenta[d]pyrimidin-4-yl]amino}propanamide], the pEC50 is reported as 7.8.
